Legend:
Phytophthora infestans [1] = test: microbe, parasite or virus in culture; assay type: cell-based; details: in Secale cereale, 168 h, read-out: control compared to the untreated check
Phytophthora infestans [2] = test: whole plant or invertebrate; assay type: in vivo, Phytophthora infestans on tomato plants; details: in Solanum lycopersicum, 24 h, read-out: control compared to the untreated check

Compound | inhibition of growth at 30 ppm (Phytophthora infestans [1]) [%] | pest or weed control at 50 ppm (Phytophthora infestans [2]) [%]
O=C(COc1ccc(C(F)(F)F)nn1)N1CCC(c2nc(C3=NOC(c4c(F)cccc4F)C3)cs2)CC1 (centres unmarked) [Compound 42, 1-(4-(4-(5-(2,6-difluorophenyl)-4,5-dihydroisoxazol-3-yl)thiazol-2-yl)piperidin-1-yl)-2-((6-(trifluoromethyl)pyridazin-3-yl)oxy)ethan-1-one] | ≥ 70 | ≥ 70
COc1nccnc1OCC(=O)N1CCC(c2nc(C3=NOC(c4c(Cl)cccc4OS(C)(=O)=O)C3)cs2)CC1 (centres unmarked) [Compound 29, 3-chloro-2-(3-(2-(1-(2-((3-methoxypyrazin-2-yl)oxy)acetyl)piperidin-4-yl)thiazol-4-yl)-4,5-dihydroisoxazol-5-yl)phenyl methanesulfonate] | ≥ 70 | ≥ 70
O=C(COc1nccnc1C(F)(F)F)N1CCC(c2csc(C3=NOC(c4c(Cl)cccc4Cl)C3)n2)CC1 (centres unmarked) [Compound 13, 1-(4-(2-(5-(2,6-dichlorophenyl)-4,5-dihydroisoxazol-3-yl)thiazol-4-yl)piperidin-1-yl)-2-((3-(trifluoromethyl)pyrazin-2-yl)oxy)ethan-1-one] | ≥ 70 | ≥ 70
COc1ccnc(OCC(=O)N2CCC(c3nc(C4=NOC(c5c(F)cccc5F)C4)cs3)CC2)n1 (centres unmarked) [Compound 36, 1-(4-(4-(5-(2,6-difluorophenyl)-4,5-dihydroisoxazol-3-yl)thiazol-2-yl)piperidin-1-yl)-2-((4-methoxypyrimidin-2-yl)oxy)ethan-1-one] | ≥ 70 | ≥ 70
COc1nccnc1OCC(=O)N1CCC(c2nc(C3=NOC(c4c(F)cccc4F)C3)cs2)CC1 (centres unmarked) [Compound 27, 1-(4-(4-(5-(2,6-difluorophenyl)-4,5-dihydroisoxazol-3-yl)thiazol-2-yl)piperidin-1-yl)-2-((3-methoxypyrazin-2-yl)oxy)ethan-1-one] | ≥ 70 | ≥ 70
O=C(COc1ccnc(C(F)(F)F)n1)N1CCC(c2nc(C3=NOC(c4c(Cl)cccc4C(F)(F)F)C3)cs2)CC1 (centres unmarked) [Compound 18, 1-(4-(4-(5-(2-chloro-6-(trifluoromethyl)phenyl)-4,5-dihydroisoxazol-3-yl)thiazol-2-yl)piperidin-1-yl)-2-((2-(trifluoromethyl)pyrimidin-4-yl)oxy)ethan-1-one] | ≥ 70 | ≥ 70
CS(=O)(=O)Oc1cccc(Cl)c1C1CC(c2csc(C3CCN(C(=O)COc4ccc(C(F)(F)F)nn4)CC3)n2)=NO1 (centres unmarked) [Compound 41, 3-chloro-2-(3-(2-(1-(2-((6-(trifluoromethyl)pyridazin-3-yl)oxy)acetyl)piperidin-4-yl)thiazol-4-yl)-4,5-dihydroisoxazol-5-yl)phenyl methanesulfonate] | ≥ 70 | ≥ 70
N#Cc1cccc(Cl)c1C1CC(c2csc(C3CCN(C(=O)COc4ccc(C(F)(F)F)nn4)CC3)n2)=NO1 (centres unmarked) [Compound 40, 3-chloro-2-(3-(2-(1-(2-((6-(trifluoromethyl)pyridazin-3-yl)oxy)acetyl)piperidin-4-yl)thiazol-4-yl)-4,5-dihydroisoxazol-5-yl)benzonitrile] | ≥ 70 | ≥ 70
O=C(COc1ccc(C(F)(F)F)nn1)N1CCC(c2nc(C3=NOC(c4c(F)cccc4Cl)C3)cs2)CC1 (centres unmarked) [Compound 39, 1-(4-(4-(5-(2-chloro-6-fluorophenyl)-4,5-dihydroisoxazol-3-yl)thiazol-2-yl)piperidin-1-yl)-2-((6-(trifluoromethyl)pyridazin-3-yl)oxy)ethan-1-one] | ≥ 70 | ≥ 70
CS(=O)(=O)Oc1cccc(Cl)c1C1CC(c2csc(C3CCN(C(=O)COc4cc(C(F)(F)F)ncn4)CC3)n2)=NO1 (centres unmarked) [Compound 7, 3-chloro-2-(3-(2-(1-(2-((6-(trifluoromethyl)pyrimidin-4-yl)oxy)acetyl)piperidin-4-yl)thiazol-4-yl)-4,5-dihydroisoxazol-5-yl)phenyl methanesulfonate] | ≥ 70 | ≥ 70
O=C(COc1nccnc1C(F)(F)F)N1CCC(c2csc(C3=NOC(c4c(Cl)cc(Cl)cc4Cl)C3)n2)CC1 (centres unmarked) [Compound 8, 1-(4-(2-(5-(2,4,6-trichlorophenyl)-4,5-dihydroisoxazol-3-yl)thiazol-4-yl)piperidin-1-yl)-2-((3-(trifluoromethyl)pyrazin-2-yl)oxy)ethan-1-one] | ≥ 70 | ≥ 70
COc1ccnc(OCC(=O)N2CCC(c3nc(C4=NOC(c5c(Cl)cccc5Cl)C4)cs3)CC2)n1 (centres unmarked) [Compound 33, 1-(4-(4-(5-(2,6-dichlorophenyl)-4,5-dihydroisoxazol-3-yl)thiazol-2-yl)piperidin-1-yl)-2-((4-methoxypyrimidin-2-yl)oxy)ethan-1-one] | ≥ 70 | ≥ 70
O=C(COc1ccnc(C(F)(F)F)n1)N1CCC(c2nc(C3=NOC(c4c(F)cccc4Br)C3)cs2)CC1 (centres unmarked) [Compound 15, 1-(4-(4-(5-(2-bromo-6-fluorophenyl)-4,5-dihydroisoxazol-3-yl)thiazol-2-yl)piperidin-1-yl)-2-((2-(trifluoromethyl)pyrimidin-4-yl)oxy)ethan-1-one] | ≥ 70 | ≥ 70
COc1nccnc1OCC(=O)N1CCC(c2nc(C3=NOC(c4c(Cl)cccc4C#N)C3)cs2)CC1 (centres unmarked) [Compound 26, 3-chloro-2-(3-(2-(1-(2-((3-methoxypyrazin-2-yl)oxy)acetyl)piperidin-4-yl)thiazol-4-yl)-4,5-dihydroisoxazol-5-yl)benzonitrile] | ≥ 70 | ≥ 70
CS(=O)(=O)Oc1cccc(Cl)c1C1CC(c2csc(C3CCN(C(=O)COc4nccnc4C(F)(F)F)CC3)n2)=NO1 (centres unmarked) [Compound 6, 3-chloro-2-(3-(2-(1-(2-((3-(trifluoromethyl)pyrazin-2-yl)oxy)acetyl)piperidin-4-yl)thiazol-4-yl)-4,5-dihydroisoxazol-5-yl)phenyl methanesulfonate] | ≥ 70 | ≥ 70
O=C(COc1ccc(C(F)(F)F)nn1)N1CCC(c2nc(C3=NOC(c4c(Cl)cc(Cl)cc4Cl)C3)cs2)CC1 (centres unmarked) [Compound 37, 1-(4-(4-(5-(2,4,6-trichlorophenyl)-4,5-dihydroisoxazol-3-yl)thiazol-2-yl)piperidin-1-yl)-2-((6-(trifluoromethyl)pyridazin-3-yl)oxy)ethan-1-one] | ≥ 70 | ≥ 70
COc1ccnc(OCC(=O)N2CCC(c3nc(C4=NOC(c5c(Cl)cccc5C#N)C4)cs3)CC2)n1 (centres unmarked) [Compound 31, 3-chloro-2-(3-(2-(1-(2-((4-methoxypyrimidin-2-yl)oxy)acetyl)piperidin-4-yl)thiazol-4-yl)-4,5-dihydroisoxazol-5-yl)benzonitrile] | ≥ 70 | ≥ 70
O=C(COc1ccc(C(F)(F)F)nn1)N1CCC(c2nc(C3=NOC(c4c(Cl)cccc4Cl)C3)cs2)CC1 (centres unmarked) [Compound 38, 1-(4-(4-(5-(2,6-dichlorophenyl)-4,5-dihydroisoxazol-3-yl)thiazol-2-yl)piperidin-1-yl)-2-((6-(trifluoromethyl)pyridazin-3-yl)oxy)ethan-1-one] | ≥ 70 | ≥ 70
O=C(COc1ccnc(C(F)(F)F)n1)N1CCC(c2nc(C3=NOC(c4c(Cl)cccc4Cl)C3)cs2)CC1 (centres unmarked) [Compound 16, 1-(4-(4-(5-(2,6-dichlorophenyl)-4,5-dihydroisoxazol-3-yl)thiazol-2-yl)piperidin-1-yl)-2-((2-(trifluoromethyl)pyrimidin-4-yl)oxy)ethan-1-one] | ≥ 70 | ≥ 70
COc1ccnc(OCC(=O)N2CCC(c3nc(C4=NOC(c5c(Cl)cc(Cl)cc5Cl)C4)cs3)CC2)n1 (centres unmarked) [Compound 35, 2-((4-methoxypyrimidin-2-yl)oxy)-1-(4-(4-(5-(2,4,6-trichlorophenyl)-4,5-dihydroisoxazol-3-yl)thiazol-2-yl)piperidin-1-yl)ethan-1-one] | – | ≥ 70
O=C(COc1cc(C(F)(F)F)ncn1)N1CCC(c2nc(C3=NOC(c4c(Cl)cc(Cl)cc4Cl)C3)cs2)CC1 (centres unmarked) [Compound 11, 1-(4-(4-(5-(2,4,6-trichlorophenyl)-4,5-dihydroisoxazol-3-yl)thiazol-2-yl)piperidin-1-yl)-2-((6-(trifluoromethyl)pyrimidin-4-yl)oxy)ethan-1-one] | ≥ 70 | –
COc1cncnc1OCC(=O)N1CCC(c2nc(C3=NOC(c4c(F)cccc4Cl)C3)cs2)CC1 (centres unmarked) [Compound 74, 1-(4-(4-(5-(2-chloro-6-fluorophenyl)-4,5-dihydroisoxazol-3-yl)thiazol-2-yl)piperidin-1-yl)-2-((5-methoxypyrimidin-4-yl)oxy)ethan-1-one] | ≥ 70 | –
O=C(COc1nccnc1Cl)N1CCC(c2nc(C3=NOC(c4c(Cl)ccc(F)c4F)C3)cs2)CC1 (centres unmarked) [Compound 111, 1-(4-(4-(5-(6-chloro-2,3-difluorophenyl)-4,5-dihydroisoxazol-3-yl)thiazol-2-yl)piperidin-1-yl)-2-((3-chloropyrazin-2-yl)oxy)ethan-1-one] | ≥ 70 | –
CSc1nccnc1OCC(=O)N1CCC(c2nc(C3=NOC(c4c(F)cccc4Cl)C3)cs2)CC1 (centres unmarked) [Compound 142, 1-(4-(4-(5-(2-chloro-6-fluorophenyl)-4,5-dihydroisoxazol-3-yl)thiazol-2-yl)piperidin-1-yl)-2-((3-(methylthio)pyrazin-2-yl)oxy)ethan-1-one] | ≥ 70 | –
O=C(COc1cncc(C(F)(F)F)n1)N1CCC(c2nc(C3=NOC(c4c(Cl)ccc(F)c4F)C3)cs2)CC1 (centres unmarked) [Compound 61, 1-(4-(4-(5-(6-chloro-2,3-difluorophenyl)-4,5-dihydroisoxazol-3-yl)thiazol-2-yl)piperidin-1-yl)-2-((6-(trifluoromethyl)pyrazin-2-yl)oxy)ethan-1-one] | ≥ 70 | –

— patent publication US12471596B2 (priority 2019, dated 2025)
